Our source for the melting point values is patent publication US7700786B2, “Pyrazole derivative, intermediate therefor, processes for producing these, and herbicide containing these as active ingredient” (Sagami Chemical Research Center, priority 2001, dated 2010).

The term melting point denotes the temperature of the solid-liquid transition.

The compound `CNC(=O)n1nc(Oc2ccc(C(F)(F)F)cc2[N+](=O)[O-])c(C)c1C` showed a melting point of 117 to 119 °C. To `Cc1cc(Oc2ccc(N)cc2C(F)(F)F)n[nH]1` [Compound 1-37, 3-(4-amino-2-trifluoromethylphenyloxy)-5-methylpyrazole] belongs 143 to 145 °C; to `CCNC(=O)n1nc(Oc2ccc(C#N)cc2C(F)(F)F)cc1C` [Example 95, N-ethyl-3-(4-cyano-2-trifluoromethylphenyloxy)-5-methylpyrazole-1-carboxamide], 103 to 105 °C. In turn, `CCNC(=O)n1nc(Oc2ncc(C(F)(F)F)cc2Cl)c(Cl)c1C` [Compound 4-67, N-ethyl-4-chloro-3-(3-chloro-5-trifluoromethylpyridin-2-yloxy)-5-methylpyrazole-1-carboxamide] displayed a melting point of 111 to 112 °C.

Compound `CCNC(=O)n1nc(Oc2ncc(C(F)(F)F)cc2Cl)cc1C(F)(F)F` [Compound 4-93, N-ethyl-3-(3-chloro-5-trifluoromethylpyridin-2-yloxy)-5-trifluoromethylpyrazole-1-carboxamide] gave a melting point of 52 to 54 °C. The figure for `COCNC(=S)n1nc(Oc2c(Cl)cc(C(F)(F)F)cc2Cl)cc1C` [Example 178, N-methoxymethyl-3-(2,6-dichloro-4-trifluoromethylphenyloxy)-5-methylpyrazole-1-carbothioamide] is 95 to 96 °C; for `CCNC(=O)n1nc(Oc2c([N+](=O)[O-])cc([N+](=O)[O-])cc2C(F)(F)F)cc1C` it is 169 to 171 °C. To `CCNC(=O)n1nc(Oc2ncc(C(F)(F)F)cc2Cl)cc1CC` [Compound 4-88, N-ethyl-3-(3-chloro-5-trifluoromethylpyridin-2-yloxy)-5-ethylpyrazole-1-carboxamide] belongs 85 to 86 °C; to `Cc1cc(Oc2ccc(F)cc2[N+](=O)[O-])n[nH]1` [Compound 1-29, 3-(4-fluoro-2-nitrophenyloxy)-5-methylpyrazole], 81 to 84 °C; to `CCc1cc(Oc2ccc(C(F)(F)F)cc2[N+](=O)[O-])nn1C(=O)NC`, 89 to 91 °C. To `CCc1c(Oc2ccc([N+](=O)[O-])cc2C(F)(F)F)nn(C(=O)NC)c1C` belongs 96 to 97 °C; to `Cc1cc(Oc2cccc(C(F)(F)F)c2)nn1C(=O)NCC1CCCO1` (stereo not drawn) [Example 199, N-tetrahydrofurfuryl-5-methyl-3-(3-trifluoromethylphenyloxy)pyrazole-1-carboxamide], 101 to 102 °C. Take `Cc1cc(Oc2ncc(C(F)(F)F)cc2Cl)nn1C(=O)N(C)C` [Compound 4-10, N,N-Dimethyl-3-(3-chloro-5-trifluoromethylpyridin-2-yloxy)-5-methylpyrazole-1-carboxamide]: the melting point was in the range of 102 to 104 °C. The figure for `Cc1cc(Oc2ncc(C(F)(F)F)cc2Cl)n[nH]1` [Compound 2-5, 3-(3-chloro-5-trifluoromethylpyridin-2-yloxy)-5-methylpyrazole] is 93 to 95 °C; for `Cc1cc(Oc2c(Cl)cc(C(F)(F)F)cc2[N+](=O)[O-])n[nH]1` [Compound 1-21, 3-(2-chloro-6-nitro-4-trifluoromethylphenyloxy)-5-methylpyrazole] it is 120 to 123 °C; for `CCOc1cc(Oc2cc(C)[nH]n2)ccc1[N+](=O)[O-]` [Compound 1-6, 3-(3-ethoxy-4-nitrophenyloxy)-5-methylpyrazole] it is 123 to 124 °C. The figure for `Cc1c(Oc2ncc(C(F)(F)F)cc2Cl)nn(C(=O)NC(C)C)c1C` [Compound 4-82, N-isopropyl-3-(3-chloro-5-trifluoromethylpyridin-2-yloxy)-4,5-dimethylpyrazole-1-carboxamide] is 78 to 80 °C; for `CNC(=O)n1nc(Oc2c(F)cc(C(F)(F)F)cc2Cl)cc1C` it is 87 to 88 °C. `Cc1cc(Oc2ccc(C(F)(F)F)cc2[N+](=O)[O-])n[nH]1` [Compound 1-44, 5-methyl-3-(2-nitro-4-trifluoromethylphenyloxy)pyrazole]: the melting point is 89 to 91 °C. With `CCNC(=O)n1nc(Oc2ccc(N)c(C(F)(F)F)c2)cc1C` [Example 100, N-ethyl-3-(4-amino-3-trifluoromethylphenyloxy)-5-methylpyrazole-1-carboxamide], the melting point was 102 to 104 °C. The figure for `Cc1cc(Oc2ccc([N+](=O)[O-])c(C(F)(F)F)c2)n[nH]1` [Compound 1-42, 5-methyl-3-(4-nitro-3-trifluoromethylphenyloxy)pyrazole] is 96 to 98 °C. To `CC(C)N(C(=O)n1nc(Oc2ccc(C(F)(F)F)cc2[N+](=O)[O-])cc1C(F)(F)F)C(C)C` [Example 241, N,N-Diisopropyl-3-(2-nitro-4-trifluoromethylphenyloxy)-5-trifluoromethylpyrazole-1-carboxamide] belongs 118 to 120 °C; to `CNC(=O)n1nc(Oc2ccc(C(F)(F)F)cc2[N+](=O)[O-])cc1C(F)(F)F`, 102 to 104 °C; to `CCc1c(Oc2ncc(C(F)(F)F)cc2Cl)nn(C(=O)NC)c1C`, 84 to 86 °C. To `Cc1cc(Oc2ccc([N+](=O)[O-])cc2)n[nH]1` [Compound 1-47, 5-methyl-3-(4-nitrophenyloxy)pyrazole] belongs 124 to 125 °C; to `Cc1c(Cl)c(Oc2c(Cl)cc(C(F)(F)F)cc2Cl)nn1C(=O)NC(C)C` [Example 249, N-isopropyl-4-chloro-3-(2,6-dichloro-4-trifluoromethylphenyloxy)-5-methylpyrazole-1-carboxamide], 109 to 111 °C; to `Cc1cc(Oc2c([N+](=O)[O-])cc([N+](=O)[O-])cc2C(F)(F)F)n[nH]1`, 145 to 147 °C. For `CCCNC(=O)n1nc(Oc2c(Cl)cc(C(F)(F)F)cc2Cl)cc1C(Cl)(Cl)Cl` [Example 250, N-propyl-3-(2,6-dichloro-4-trifluoromethylphenyloxy)-5-trichloromethylpyrazole-1-carboxamide], the melting point was 89 to 91 °C.

`CCNC(=O)n1nc(Oc2ncc(C(F)(F)F)cc2Cl)c(Br)c1C` [Compound 4-78, N-ethyl-4-bromo-3-(3-chloro-5-trifluoromethylpyridin-2-yloxy)-5-methylpyrazole-1-carboxamide] registered a melting point of 123 to 125 °C. To `Cc1cc(Oc2ccc([N+](=O)[O-])c(F)c2)n[nH]1` [Compound 1-26, 3-(3-fluoro-4-nitrophenyloxy)-5-methylpyrazole] belongs 80 to 83 °C. To `Cc1cc(Oc2ccc(C#N)cc2C(F)(F)F)n[nH]1` [Compound 1-30, 3-(4-cyano-2-trifluoromethylphenyloxy)-5-methylpyrazole] belongs 123 to 125 °C; to `Cc1c(Cl)c(Oc2c(Cl)cc(C(F)(F)F)cc2Cl)nn1C(=O)NCCCl`, 141 to 143 °C. The figure for `CNC(=O)n1nc(Oc2ccc([N+](=O)[O-])cc2C(F)(F)F)c(Cl)c1C` [Example 245, N-methyl-4-chloro-5-methyl-3-(4-nitro-2-trifluoromethylphenyloxy)pyrazole-1-carboxamide] is 157 to 158 °C.
